From patent US11524950B2, “Treatment of immune-related and inflammatory diseases” (Celgene Corporation, priority 2012, dated 2022)

Legend:
[1] = system: Human umbilical vascular endothelial cells; assay: Human umbilical vascular endothelial cell tube formation assay; type: cell-based; details: VEGF-induced; at 10 μM; p<0.05 vs stimulated DMSO control
Procedure: Human Umbilical Vascular Endothelial Cell Tube Formation Assay: Compounds were tested in the growth factor-induced HUVEC tube formation assay. The tube formation plates were incubated at 37° C. for 30 minutes for matrigel to polymerize. The HUVECs were starved in 0.1% BSA basal EBM2 medium for 5 hours after washing with the same medium 3 times. The cells were trypsinized and centrifuged. Then 25 μL of 4× serially diluted compounds (10, 1, 0.1, 0.01, 0.001, 0.0001, 0.00001 μM) were added in duplicate with 50 μL of 2×10^4 cells/well to tube formation plates coated with matrigel. […] of 4×VEGF (final concentration=25 ng/mL) or bFGF (final concentration=10 ng/mL) were added to the plates. The cells were then incubated overnight (˜18 hours) at 37° C. in a humidified incubator. The tubule webs were stained with calcein AM at […] in 2% FBS/HBSS for 30 minutes and images taken by fluorescence microscopy. The tubules were quantified by the MetaMorph tube formation software program for tube area and tube length.
The percentage inhibition of cell proliferation, tube formation, migration, and invasion was calculated by subtracting the result for unstimulated DMSO control from test sample results, averaging all replicates, and normalizing to the growth factor-stimulated DMSO control (0% inhibition). The IC50 values were calculated by using GraphPad Prism 5.0.

IgG [2] = assay: IgG production by SLE patient PBMC (ELISA); details: Homo sapiens, read-out: IgG IC50 (nM) SLE (n = 3)
Procedure: (§1) Supernatants (from section 8.2.3) were harvested and analyzed by ELISA for IgG and IgM production (ZeptoMetrix Corp. Buffalo, N.Y.).
(§2) B Cell Differentiation Protocol: Enriched B cells were isolated from fresh buffy-coat (leukocyte enriched units) by Ficoll-Hypaque density gradient centrifugation followed by incubation with EasySep negative selection human B cell enrichment kit (Stem cell technologies). In brief, 2×10^8/ml PBMC were mixed with 4 ml of Robosep buffer and transferred to a 14 mL polystyrene round bottom tube. EasySep Human B cell enrichment cocktail (200 μL) was added per tube, vortexed and incubated at room temperature for 10 minutes. […] After cells were counted, an aliquot was removed for FACS analysis and the remaining cells were used for culture. […]
(§3) CD19+ peripheral blood human B cells from normal donors, or total peripheral blood mononuclear cell PBMC for patients with systemic lupus erythematosus (“SLE”), were cultured in the presence of interleukin (“IL”)-2, IL-10, IL15, TLR9 agonist, and CD40 L for 4 days, followed by IL-2, IL-6, IL-10 and IL-15 for another 3 days. Cells were counted, viability assessed, and expression of CD20, CD38, CD44, and CD83 were measured by flow cytometry. Plasmablast lineage factors IRF-4, BLIMP-1, XBP-1, and IgJ, and germinal center markers PAX-5 and BCL-6 were measured by qRT-PCR. […] Secreted immunoglobulins IgG and IgM were measured by ELISA.

[3] = system: IRF4, BLIMP1, XBP1, PAX5, IgJ; assay: B and plasma cell transcription factor gene expression (RT-PCR), normal B cell differentiation culture; type: cell-based, human
Procedure: Differentiated B cells (see section 8.2.3) were harvested for total ribonucleic acid (RNA) preparation with a Qiacube RNA extraction instrument (Qiagen, Valencia, Calif.) using QIAGEN RNeasy mini spin-column kits. Purified RNA was reverse transcribed into cDNA with thermal cycler [MJ Research; Inc., St. Bruno, Quebec, Canada) using a reverse-transcriptase kit (Applied Biosystems). The gene expression assay was carried out using 7500 RT-PCR system (Applied Biosystems) in triplicate. A glyceraldehyde 3-phosphate dehydrogenase gene expression assay control was run for each sample and used as a normalization control. For each gene, samples within each experiment were normalized to 0.1% DMSO treatment only for that particular time point.

MRL/MpJ-Faslpr/J mouse = MRL/MpJ-Faslpr/J mouse model of systemic lupus erythematosus; type: in vivo; details: 30 mg/kg; week 4
CD19+ B cells = assay: B cell differentiation assay: CD20/CD38 phenotyping by flow cytometry; type: cell-based, human; details: for CD20−CD38++ plasmablasts/plasma cells, % / CD20+CD38− activated B cells, % / CD20+CD38+ intermediated cells, %: 3 donors; for plasmablast population (CD20-CD38+): day 7, DMSO control 30.4%
Procedure: Differentiated B cells (see section 8.2.3) were harvested, counted, and aliquoted at about 1×10^6 cells or less per 4 mL tube. The cells were washed 1× with stain buffer. Next, the cells then were blocked with 10% human serum/PBS for 20-30 minutes. Following blocking, the cells were centrifuged for 5 minutes at 1200 rpm and supernatants discarded. In the 100 μL of remaining buffer, 20 μL of various BD Pharmigen flow antibodies were added according to experimental design. The cells were stained for 20-30 minutes at 4° C. Then the cells were washed 2× with stain buffer and supernatants discarded. Next, 500 μL of stain buffer or PBS was added to the tubes. The samples were immediately analyzed or put at 4° C. overnight. Cells were stained with mouse anti-human CD20 and CD38, CD19 and CD27, or respective isotype controls. All samples were analyzed using a FACSCanto flow cytometer, FACSDiva analysis software (BD Bioscience), and FlowJo Analysis software.
Immunophenotyping For Flow Cytometric Analysis: Cells were stained using multicolor direct immunofluorescence stain for flow cytometric analysis. Surface staining was performed before cell fixation and permeabilization. Cells (50 μl; 1×10^6 cells/ml in washing buffer, 2% FBS with 0.1% NaN3 in PBS) were used for each staining. The cells were stained with isotype control mAb ([…]) and multicolor FITC-conjugated anti-CD20 mAb and PE-conjugated anti-CD38 mAb, or PerCP-Cy5.5 conjugated anti-CD44 mAb, PE-conjugated anti-CD83 mAb were used for day 4 activated B cells (CD20+CD38-cells), and day 4 PBs and day 7 PBs (CD20-CD38+), and other staining, analyzed by flow cytometry as per manufacturer's instructions. The intracellular staining of transcription factor proteins (BCL-6, IRF-4, BLIMP-1, PAX-5 and XBP-1) and IgJ was performed according to the manufacturer's recommendations.

IgG [4] = assay: IgG production in normal B cell / PBMC differentiation cultures (ELISA); details: Homo sapiens
Procedure: Step 1—B cell Activation—day 0 through day 4: Prepare fresh B cell cocktail by adding 50 μg/mL of human transferrin to B cell media. (Iscoves+10% PFBS, 1% P/S, and 5 μg/mL human insulin). […] Five milliliters (1×10^5/ml) of CD19+ B cell were added to each well of a 6 well flat-bottom plate (final cell count=5×10^5/well). Five L (lx)±compound/DMSO was added to each test well (0.1% final DMSO) and incubated at 37° C. for 4 days.
Step 2—Plasmablast Generation—day 4 through day 7: Cells were harvested and counted on the cell counter; an aliquot was removed for flow analysis, the remaining cells were washed with PBS. Prepare fresh B cell cocktail by adding 1 μg/ml of human transferrin to B cell media. […] Add B cell differentiation cocktail (final concentration): recombinant human IL-2 (20 U/mL), IL-10 (50 ng/mL), IL-15 (10 ng/mL), IL-6 (50 ng/mL) to cells. Add fresh B cell cocktail and transfer cells back to the original wells and bring volume back to 5 mL. Five L (1×)±compound/DMSO was added to each test well (0.1% final DMSO) and incubated at 37° C. for 4 days.
as §1
The data was graphed using GraphPad Prism 5.0 software.
IgM and IgG were measured by ELISA.

IL-2 = assay: T-cell costimulation: IL-2 production (immobilized anti-CD3, ELISA); type: cell-based; details: Homo sapiens, 48 h, immobilized anti-CD3, 2 days, read-out: EC50 for co-stimulated IL-2 production by T cells
Procedure: CRBN ubiquitination was measured in HEK293T cells, which were transfected with an amino-terminal His-biotin-tagged CRBN construct, then preincubated with compounds for one hour followed by treatment with the MG132 proteasome inhibitor (to arrest degradation of ubiquitinated proteins). Cells were lysed and processed to measure CRBN ubiquitination by SDS-PAGE and immunoblot analysis using an anti-ubiquitin antibody. Cell proliferation studies were conducted in enalidomide-sensitive and refractory multiple myeloma cells. […] T-cell costimulation was measured in purified primary human T cells stimulated using immobilized anti-CD3 antibody in cell culture for 2 days, and cytokine secretion was measured by ELISA.

IgM = IgM production by SLE patient PBMC (ELISA); details: Homo sapiens, read-out: IgM IC50 (nM) SLE (n = 3)
Procedure: as §1, §2, §3

O=C1CC[C@@H](N2Cc3c(OCc4ccc(CN5CCOCC5)cc4)cccc3C2=O)C(=O)N1 [R-enantiomer, (R)-3-[4-(4-morphlin-4-ylmethylbenzyloxy)-1-oxo-1,3-dihydro-isoindo-2-yl]piperidine-2,6-dione]
tube area and length [1]: significant inhibition

O=C1CC[C@H](N2Cc3c(OCc4ccc(CN5CCOCC5)cc4)cccc3C2=O)C(=O)N1 [Test compound, (S)-3-[4-(4-morphlin-4-ylmethylbenzyloxy)-1-oxo-1,3-dihydro-isoindo-2-yl]piperidine-2,6-dione]
IC50 (IgG [2]): 3.2 nM
B cell transcription factor PAX5 [3]: enhanced
expression of plasma cell transcription factor BLIMP1 [3]: dose-dependently inhibited
expression of plasma cell transcription factor RF4 [3]: dose-dependently inhibited
expression of plasma cell transcription factor XBP1 [3]: dose-dependently inhibited
BLIMP-1 gene expression ([3]; day 7, 20 nM, qRT-PCR): 14.3 % of control
IRF-4 gene expression ([3]; day 7, 20 nM, qRT-PCR): 20.5 % of control
IgJ gene expression ([3]; day 7, 20 nM, qRT-PCR): 31.5 % of control
XBP-1 gene expression ([3]; day 7, 20 nM, qRT-PCR): 15.1 % of control
Splenic B cells, increase (MRL/MpJ-Faslpr/J mouse): 37%
anti-double stranded DNA autoantibody level, decrease (MRL/MpJ-Faslpr/J mouse): 25%
peripheral blood B cells (MRL/MpJ-Faslpr/J mouse): no change
percentage of CD20+CD38- activated B cells (CD19+ B cells): increased
percentage of CD20-CD38+ plasmablasts (CD19+ B cells): dose-dependently reduced
percentage of large size cells (gate p2) (CD19+ B cells; Day 4, 2 nM, DMSO 35.5%): 31.2%
CD20−CD38++ plasmablasts/plasma cells, % (CD19+ B cells; Day 4, 20 nM, DMSO 25.9 ± 2.4): 4.8 ± 2.3%
CD20−CD38++ plasmablasts/plasma cells, % (CD19+ B cells; Day 4, 20 nM, DMSO 25.9 ± 2.4, listed as test compound): 4.8%
CD20+CD38− activated B cells, % (CD19+ B cells; Day 4, 20 nM, DMSO 42.1 ± 1.5): 57.9 ± 11.5%
CD20+CD38− activated B cells, % (CD19+ B cells; Day 4, 20 nM, DMSO 42.1 ± 1.5, listed as test compound): 57.9%
percentage of large size cells (gate p2) (CD19+ B cells; Day 4, 20 nM, DMSO 35.5%): 23.1%
percentage of large size cells (gate p2) (CD19+ B cells; Day 4, 200 nM, DMSO 35.5%): 20.4%
CD20+CD38+ intermediated cells, % (CD19+ B cells; Day 4, DMSO 14.7 ± 3.1): 18.3 ± 5.5%
percentage of large size cells (gate p2) (CD19+ B cells; Day 7, 2 nM, DMSO 34.9%): 34.9%
CD20+CD38− activated B cells, % (CD19+ B cells; Day 7, 20 nM, DMSO 12.5 ± 5.7): 50.5 ± 8.6%
CD20+CD38− activated B cells, % (CD19+ B cells; Day 7, 20 nM, DMSO 12.5 ± 5.7, listed as test compound): 50.5%
CD20−CD38++ plasmablasts/plasma cells, % (CD19+ B cells; Day 7, 20 nM, DMSO 54.8 ± 5.0): 9.7 ± 5.4%
CD20−CD38++ plasmablasts/plasma cells, % (CD19+ B cells; Day 7, 20 nM, DMSO 54.8 ± 5.0, listed as test compound): 9.7%
percentage of large size cells (gate p2) (CD19+ B cells; Day 7, 20 nM, DMSO 34.9%): 19.9%
percentage of large size cells (gate p2) (CD19+ B cells; Day 7, 200 nM, DMSO 34.9%): 11.94%
CD20+CD38+ intermediated cells, % (CD19+ B cells; Day 7, DMSO 22.8 ± 5.1): 23 ± 7.7%
plasmablast population (CD20-CD38+) (CD19+ B cells; 2 nM): 27.3%
plasmablast population (CD20-CD38+) (CD19+ B cells; 20 nM): 2.1%
plasmablast population (CD20-CD38+) (CD19+ B cells; 200 nM): 0.4%
large size cell population (gate p2) (CD19+ B cells; normal B cell differentiation assay): dose-dependently depleted
IC50 (IgG [4]; B-cell, read-out: secreted IgG production IC50): 1.8 nM
IC50 (IgG [4]; PBMC, read-out: IgG IC50 (nM) Normal (n = 3)): 2.1 nM
IC50 (IgG [4]; read-out: IgG production IC50): 1.8 nM
EC50 (IL-2): ~0.29 nM
IC50 (IgM): 0.9 nM
